From patent US9266878B2, “Phosphatidylinositol 3-kinase inhibitors” (Gilead Calistoga LLC, priority 2012, dated 2016)

Assays:
Assay in all cases: Enzymatic activity of PI3K isoforms, TR-FRET assay (PIP3 formation)
Type in all cases: biochemical
PI3Kδ = PI3Kδ (Homo sapiens (Human), UniProt O00329); conditions: bound given in nM
Method: (§1) Enzymatic activity of the class I PI3K isoforms was measured using a time-resolved fluorescence resonance energy transfer (TR-FRET) assay that monitors formation of the product 3,4,5-inositol triphosphate molecule (PIP3), as it competes with fluorescently labeled PIP3 for binding to the GRP-1 pleckstrin homology domain protein. An increase in […] product results in a decrease in TR-FRET signal as the labeled fluorophore is displaced from the GRP-1 protein binding site.
(§2) Class I PI3K isoforms were expressed and purified as heterodimeric recombinant proteins. All assay reagents and buffers for the TR-FRET assay were purchased from Millipore. […] After an assay reaction time of 30 minutes at 25° C., reactions were terminated with a final concentration of 10 mM EDTA, 10 nM labeled-PIP3, and 35 nM Europium labeled GRP-1 detector protein before reading TR-FRET on an Envision plate reader (Ex: 340 nm; Em: 615/665 nm; 100 μs delay and 500 μs read window).
(§3) IC50 are reported in units of nM. These assays generally produced results within 3-fold of the reported mean.

PI3Kα = PI3Kα (Homo sapiens (Human), UniProt P42336); conditions: bound given in uM
Method: as §1, §2, §3

PI3Kβ = PI3Kβ (Homo sapiens (Human), UniProt P42338)
Method: as §1
Class I PI3K isoforms were expressed and purified as heterodimeric recombinant proteins. All assay reagents and buffers for the TR-FRET assay were purchased from Millipore.
IC50 are reported in units of nM.

PI3Kδ, sequence (O00329 whole entry, the tested form may be a part, canonical isoform): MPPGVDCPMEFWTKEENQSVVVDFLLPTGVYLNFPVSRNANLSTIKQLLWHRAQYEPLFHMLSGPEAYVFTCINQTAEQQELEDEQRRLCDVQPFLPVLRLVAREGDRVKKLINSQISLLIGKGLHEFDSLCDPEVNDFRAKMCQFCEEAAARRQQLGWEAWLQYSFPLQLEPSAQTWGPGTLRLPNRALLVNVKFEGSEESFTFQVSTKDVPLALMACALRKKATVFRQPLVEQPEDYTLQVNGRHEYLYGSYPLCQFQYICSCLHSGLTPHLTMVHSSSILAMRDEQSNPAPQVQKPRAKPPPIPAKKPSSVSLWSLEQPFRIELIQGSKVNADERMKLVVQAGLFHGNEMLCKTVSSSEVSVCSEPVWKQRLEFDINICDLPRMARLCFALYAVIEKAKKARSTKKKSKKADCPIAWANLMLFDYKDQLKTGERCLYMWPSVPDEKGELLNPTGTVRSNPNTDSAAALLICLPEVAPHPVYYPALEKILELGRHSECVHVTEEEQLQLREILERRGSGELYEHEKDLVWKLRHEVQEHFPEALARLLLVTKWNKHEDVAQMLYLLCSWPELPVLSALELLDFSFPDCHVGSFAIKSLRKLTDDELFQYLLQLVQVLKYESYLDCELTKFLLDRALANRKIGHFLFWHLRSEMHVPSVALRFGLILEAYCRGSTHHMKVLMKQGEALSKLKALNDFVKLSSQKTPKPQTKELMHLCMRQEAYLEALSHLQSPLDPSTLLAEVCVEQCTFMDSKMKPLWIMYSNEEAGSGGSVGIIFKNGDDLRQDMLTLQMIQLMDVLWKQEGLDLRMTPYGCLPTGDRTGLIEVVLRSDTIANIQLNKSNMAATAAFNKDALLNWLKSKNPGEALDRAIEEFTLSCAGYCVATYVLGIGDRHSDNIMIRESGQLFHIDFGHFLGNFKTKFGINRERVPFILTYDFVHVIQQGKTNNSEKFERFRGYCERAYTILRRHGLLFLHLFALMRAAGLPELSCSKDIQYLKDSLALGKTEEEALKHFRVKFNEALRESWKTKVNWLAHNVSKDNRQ
PI3Kδ, sequence (P27986 whole entry partner, the tested form may be a part, canonical isoform): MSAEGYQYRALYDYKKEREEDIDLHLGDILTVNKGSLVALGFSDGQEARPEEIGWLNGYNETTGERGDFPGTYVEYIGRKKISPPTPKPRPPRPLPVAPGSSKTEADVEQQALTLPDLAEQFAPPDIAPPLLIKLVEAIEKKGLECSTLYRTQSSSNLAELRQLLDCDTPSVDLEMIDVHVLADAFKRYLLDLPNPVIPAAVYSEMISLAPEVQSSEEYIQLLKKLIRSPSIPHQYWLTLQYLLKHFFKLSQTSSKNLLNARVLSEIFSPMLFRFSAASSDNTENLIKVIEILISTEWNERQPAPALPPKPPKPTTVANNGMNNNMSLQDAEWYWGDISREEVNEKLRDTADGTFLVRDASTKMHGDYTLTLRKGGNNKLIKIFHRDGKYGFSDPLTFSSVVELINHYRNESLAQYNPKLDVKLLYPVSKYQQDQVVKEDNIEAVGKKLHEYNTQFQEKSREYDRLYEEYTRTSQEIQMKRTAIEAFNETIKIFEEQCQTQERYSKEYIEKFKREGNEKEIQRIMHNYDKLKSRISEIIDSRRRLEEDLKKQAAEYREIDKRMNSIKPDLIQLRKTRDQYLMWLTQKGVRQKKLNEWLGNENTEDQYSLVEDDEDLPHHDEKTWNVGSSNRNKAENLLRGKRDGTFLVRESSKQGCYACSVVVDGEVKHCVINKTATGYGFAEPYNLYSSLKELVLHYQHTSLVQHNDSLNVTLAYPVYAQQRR
PI3Kα, sequence (P42336 whole entry): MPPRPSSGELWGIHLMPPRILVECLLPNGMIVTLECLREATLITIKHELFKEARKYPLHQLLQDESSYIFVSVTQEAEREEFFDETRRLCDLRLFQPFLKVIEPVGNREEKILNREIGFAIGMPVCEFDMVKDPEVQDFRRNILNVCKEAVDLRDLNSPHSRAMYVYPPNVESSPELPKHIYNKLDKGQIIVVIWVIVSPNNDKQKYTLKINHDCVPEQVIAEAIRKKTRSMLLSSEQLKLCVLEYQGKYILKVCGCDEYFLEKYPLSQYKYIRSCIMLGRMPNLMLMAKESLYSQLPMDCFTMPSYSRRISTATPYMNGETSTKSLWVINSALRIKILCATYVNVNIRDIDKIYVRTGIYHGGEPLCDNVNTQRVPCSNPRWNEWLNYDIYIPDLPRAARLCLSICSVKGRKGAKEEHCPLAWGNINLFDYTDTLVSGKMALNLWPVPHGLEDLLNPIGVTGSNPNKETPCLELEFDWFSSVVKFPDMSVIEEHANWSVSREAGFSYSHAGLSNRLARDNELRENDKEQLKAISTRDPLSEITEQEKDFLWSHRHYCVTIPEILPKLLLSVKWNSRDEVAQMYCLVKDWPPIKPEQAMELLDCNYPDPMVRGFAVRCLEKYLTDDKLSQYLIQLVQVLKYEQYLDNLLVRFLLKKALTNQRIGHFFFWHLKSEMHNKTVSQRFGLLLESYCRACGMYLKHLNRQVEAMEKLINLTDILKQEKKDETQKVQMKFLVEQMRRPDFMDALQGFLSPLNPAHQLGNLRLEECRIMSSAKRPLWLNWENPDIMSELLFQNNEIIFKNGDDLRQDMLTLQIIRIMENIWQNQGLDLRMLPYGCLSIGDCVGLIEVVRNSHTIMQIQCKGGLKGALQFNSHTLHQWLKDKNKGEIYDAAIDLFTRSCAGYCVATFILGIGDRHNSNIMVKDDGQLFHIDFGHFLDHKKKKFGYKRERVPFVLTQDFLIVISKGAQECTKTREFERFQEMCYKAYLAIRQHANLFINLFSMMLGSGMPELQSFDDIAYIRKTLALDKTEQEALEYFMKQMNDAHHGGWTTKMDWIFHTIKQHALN
PI3Kα, sequence (P27986 whole entry partner): as the sequence (P27986 whole entry partner, the tested form may be a part, canonical isoform) above
PI3Kβ, sequence (P42338 whole entry): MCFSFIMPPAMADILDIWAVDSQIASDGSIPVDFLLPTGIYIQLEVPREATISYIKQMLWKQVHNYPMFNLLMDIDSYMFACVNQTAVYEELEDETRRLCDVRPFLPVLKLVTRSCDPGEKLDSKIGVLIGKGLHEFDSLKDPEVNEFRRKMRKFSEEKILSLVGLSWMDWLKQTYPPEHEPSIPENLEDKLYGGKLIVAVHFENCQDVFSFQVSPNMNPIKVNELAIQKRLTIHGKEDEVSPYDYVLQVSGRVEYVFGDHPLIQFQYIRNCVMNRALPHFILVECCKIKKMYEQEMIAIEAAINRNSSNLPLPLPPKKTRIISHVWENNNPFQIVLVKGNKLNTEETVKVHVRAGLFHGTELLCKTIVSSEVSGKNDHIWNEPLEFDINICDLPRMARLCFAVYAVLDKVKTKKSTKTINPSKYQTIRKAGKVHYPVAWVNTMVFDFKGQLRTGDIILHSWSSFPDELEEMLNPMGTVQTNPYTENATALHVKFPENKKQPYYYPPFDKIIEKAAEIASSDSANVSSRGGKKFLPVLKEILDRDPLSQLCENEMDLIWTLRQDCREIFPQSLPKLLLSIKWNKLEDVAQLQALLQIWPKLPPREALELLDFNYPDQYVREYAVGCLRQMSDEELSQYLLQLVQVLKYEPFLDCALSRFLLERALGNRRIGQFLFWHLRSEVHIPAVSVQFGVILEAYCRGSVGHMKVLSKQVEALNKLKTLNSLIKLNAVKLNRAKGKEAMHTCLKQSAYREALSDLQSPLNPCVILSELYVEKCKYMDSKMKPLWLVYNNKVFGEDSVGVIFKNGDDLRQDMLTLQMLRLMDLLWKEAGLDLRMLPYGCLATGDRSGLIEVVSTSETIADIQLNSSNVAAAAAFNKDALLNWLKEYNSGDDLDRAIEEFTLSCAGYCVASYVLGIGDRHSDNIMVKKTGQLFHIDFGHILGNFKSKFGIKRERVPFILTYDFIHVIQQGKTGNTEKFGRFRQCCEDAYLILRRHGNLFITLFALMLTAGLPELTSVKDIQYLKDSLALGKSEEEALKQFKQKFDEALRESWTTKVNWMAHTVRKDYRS
PI3Kβ, sequence (P27986 whole entry partner): as the sequence (P27986 whole entry partner, the tested form may be a part, canonical isoform) above

| SMILES | IC50 (PI3Kδ) [nM] | IC50 (PI3Kα) [µM] | IC50 (PI3Kβ; bound given in uM) [µM] | IC50 (PI3Kβ; bound given in nM) [µM] |
| --- | --- | --- | --- | --- |
| COC(=O)c1ccc(C#Cc2c(N)ncnc2N[C@@H](C)c2nc3cccc(Cl)c3c(=O)n2-c2ccccc2)nc1 [Compound 3a, (S)-methyl 6-((4-amino-6-(1-(5-chloro-4-oxo-3-phenyl-3,4-dihydroquinazolin-2-yl)ethylamino)pyrimidin-5-yl)ethynyl)nicotinate] | < 100 | > 1 | > 1 | – |
| C[C@H](Nc1ncnc(N)c1C#Cc1cnccn1)c1nc2cccc(Cl)c2c(=O)n1-c1ccccc1 [Compound 16a, (S)-2-(1-(6-amino-5-(pyrazin-2-ylethynyl)pyrimidin-4-ylamino)ethyl)-5-chloro-3-phenylquinazolin-4(3H)-one] | < 100 | > 1 | – | < 0.1 |
| C[C@H](Nc1ncnc(N)c1C#Cc1ccccn1)c1nc2cccc(Cl)c2c(=O)n1-c1ccccc1 [Compound 50a, (S)-2-(1-(6-amino-5-(pyridin-2-ylethynyl)pyrimidin-4-ylamino)ethyl)-5-chloro-3-phenylquinazolin-4(3H)-one] | < 100 | – | – | < 0.1 |
| Cc1cccc2nc([C@H](C)Nc3ncnc(N)c3C#Cc3cnccn3)n(-c3ccccc3)c(=O)c12 [Compound 98a, (S)-2-(1-((6-amino-5-(pyrazin-2-ylethynyl)pyrimidin-4-yl)amino)ethyl)-5-methyl-3-phenylquinazolin-4(3H)-one] | < 100 | – | – | < 0.1 |
| C[C@H](Nc1nc(N)nc(N)c1C#Cc1ccc(F)cn1)c1nc2cccc(Cl)c2c(=O)n1-c1cc(F)cc(F)c1 [Compound 78a, (S)-5-chloro-2-(1-((2,6-diamino-5-((5-fluoropyridin-2-yl)ethynyl)pyrimidin-4-yl)amino)ethyl)-3-(3,5-difluorophenyl)quinazolin-4(3H)-one] | < 100 | > 1 | > 1 | – |
| C[C@H](Nc1nc(N)nc(N)c1C#Cc1ccc(F)cn1)c1nc2cccc(Cl)c2c(=O)n1-c1ccccc1 [Compound 83a, (S)-5-chloro-2-(1-((2,6-diamino-5-((5-fluoropyridin-2-yl)ethynyl)pyrimidin-4-yl)amino)ethyl)-3-phenylquinazolin-4(3H)-one] | < 100 | > 1 | > 1 | – |
| Cc1cccc(C#Cc2c(N)ncnc2N[C@@H](C)c2nc3cccc(Cl)c3c(=O)n2-c2ccccc2)n1 [Compound 141a, (S)-2-(1-((6-amino-5-((6-methylpyridin-2-yl)ethynyl)pyrimidin-4-yl)amino)ethyl)-5-chloro-3-phenylquinazolin-4(3H)-one] | < 100 | > 1 | – | < 0.1 |
| C[C@H](Nc1ncnc(N)c1C#Cc1ccccc1)c1nc2cccc(S(C)(=O)=O)c2c(=O)n1-c1ccccc1 [Compound 112a, (S)-2-(1-((6-amino-5-(phenylethynyl)pyrimidin-4-yl)amino)ethyl)-5-(methylsulfonyl)-3-phenylquinazolin-4(3H)-one] | < 100 | – | > 1 | – |
| Cc1ccc(C#Cc2c(N)ncnc2N[C@@H](C)c2nc3cccc(Cl)c3c(=O)n2-c2cc(F)cc(F)c2)nc1 [Compound 164a, (S)-2-(1-((6-amino-5-((5-methylpyridin-2-yl)ethynyl)pyrimidin-4-yl)amino)ethyl)-5-chloro-3-(3,5-difluorophenyl)quinazolin-4(3H)-one] | < 100 | > 1 | > 1 | – |
| Cc1ccnc(C#Cc2c(N)ncnc2N[C@@H](C)c2nc3cccc(Cl)c3c(=O)n2-c2ccccc2)c1 [Compound 147a, (S)-2-(1-((6-amino-5-((4-methylpyridin-2-yl)ethynyl)pyrimidin-4-yl)amino)ethyl)-5-chloro-3-phenylquinazolin-4(3H)-one] | < 100 | – | – | < 0.1 |
| C[C@H](Nc1ncnc(N)c1C#Cc1ccc(C(F)(F)F)cn1)c1nc2cccc(Cl)c2c(=O)n1-c1cc(F)cc(F)c1 [Compound 134a, (S)-2-(1-((6-amino-5-((5-(trifluoromethyl)pyridin-2-yl)ethynyl)pyrimidin-4-yl)amino)ethyl)-5-chloro-3-(3,5-difluorophenyl)quinazolin-4(3H)-one] | – | > 1 | > 1 | – |
| C[C@H](Nc1ncnc(N)c1C#Cc1ncccc1C(F)(F)F)c1nc2cccc(Cl)c2c(=O)n1-c1ccccc1 [Compound 142a, (S)-2-(1-((6-amino-5-((3-(trifluoromethyl)pyridin-2-yl)ethynyl)pyrimidin-4-yl)amino)ethyl)-5-chloro-3-phenylquinazolin-4(3H)-one] | < 100 | > 1 | – | < 0.1 |
| Cc1cccnc1C#Cc1c(N)ncnc1N[C@@H](C)c1nc2cccc(Cl)c2c(=O)n1-c1ccccc1 [Compound 143a, (S)-2-(1-((6-amino-5-((3-methylpyridin-2-yl)ethynyl)pyrimidin-4-yl)amino)ethyl)-5-chloro-3-phenylquinazolin-4(3H)-one] | < 100 | > 1 | – | < 0.1 |
| C[C@H](Nc1ncnc(N)c1C#Cc1ccc(F)cn1)c1nc2c(F)ccc(Cl)c2c(=O)n1-c1cc(F)cc(F)c1 [Compound 84a, (S)-2-(1-((6-amino-5-((5-fluoropyridin-2-yl)ethynyl)pyrimidin-4-yl)amino)ethyl)-5-chloro-3-(3,5-difluorophenyl)-8-fluoroquinazolin-4(3H)-one] | < 100 | > 1 | > 1 | – |
| Cc1ccc(F)c2nc([C@H](C)Nc3ncnc(N)c3C#Cc3cnccn3)n(-c3ccccc3)c(=O)c12 [Compound 75a, (S)-2-(1-((6-amino-5-(pyrazin-2-ylethynyl)pyrimidin-4-yl)amino)ethyl)-8-fluoro-5-methyl-3-phenylquinazolin-4(3H)-one] | < 100 | – | – | < 0.1 |
| C[C@H](Nc1ncnc(N)c1C#Cc1cccc(N)n1)c1nc2cccc(Cl)c2c(=O)n1-c1cc(F)cc(F)c1 [Compound 15a, (S)-2-(1-(6-amino-5-((6-aminopyridin-2-yl)ethynyl)pyrimidin-4-ylamino)ethyl)-5-chloro-3-(3,5-difluorophenyl)quinazolin-4(3H)-one] | < 100 | – | – | < 0.1 |
| C[C@H](Nc1ncnc(N)c1C#Cc1cncnc1)c1nc2cccc(Cl)c2c(=O)n1-c1ccccc1 [Compound 42a, (S)-2-(1-(6-amino-5-(pyrimidin-5-ylethynyl)pyrimidin-4-ylamino)ethyl)-5-chloro-3-phenylquinazolin-4(3H)-one] | < 100 | > 1 | > 1 | – |
| C[C@H](Nc1ncnc(N)c1C#Cc1ccc(OC(F)(F)F)cc1)c1nc2cccc(Cl)c2c(=O)n1-c1ccccc1 [Compound 27a, (S)-2-(1-(6-amino-5-((4-(trifluoromethoxy)phenyl)ethynyl)pyrimidin-4-ylamino)ethyl)-5-chloro-3-phenylquinazolin-4(3H)-one] | < 100 | > 1 | > 1 | – |
| C[C@H](Nc1ncnc(N)c1C#Cc1cccnc1)c1nc2cccc(Cl)c2c(=O)n1-c1cc(F)cc(F)c1 [Compound 43a, (S)-2-(1-(6-amino-5-(pyridin-3-ylethynyl)pyrimidin-4-ylamino)ethyl)-5-chloro-3-(3,5-difluorophenyl)quinazolin-4(3H)-one] | < 100 | > 1 | > 1 | – |
